According to the supplement of paper PMC10307832:

Legend:
Test in all cases: relative viability (nuclei count vs DMSO), 5 days (fraction); higher = more cells survive
PC-3 [JPC-3] = test system: PC-3 [JPC-3]
In short: (§1)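 Lung cancer cell lines were pin-tool dosed in 1536-well plates on the day after seeding, with either a lone drug or a fixed anchor-drug dose plus five library-drug doses (not always all listed) in √10 steps. Nuclei were counted on 4× images after 5 days. Relative viability is the ratio of treated-well to vehicle-well nuclei counts, with each value a median of duplicate plates.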

HCC-15 = test system: HCC-15
In short: as §1

UMC-11 = test system: UMC-11
In short: as §1

LC-2-ad = test system: LC-2-ad
In short: as §1

ChaGo-K-1 = test system: ChaGo-K-1
In short: as §1

NCI-H2087 = test system: NCI-H2087
In short: as §1

NCI-H838 = test system: NCI-H838
In short: as §1

H3255 = test system: H3255
In short: as §1

NCI-H1666 = test system: NCI-H1666
In short: as §1

LXF-289 = test system: LXF-289
In short: as §1

LK-2 = test system: LK-2
In short: as §1

LCLC-97TM1 = test system: LCLC-97TM1
In short: as §1

NCI-H1651 = test system: NCI-H1651
In short: as §1

NCI-H596 = test system: NCI-H596
In short: as §1

SK-MES-1 = test system: SK-MES-1
In short: as §1

BEN = test system: BEN
In short: as §1

NCI-H322M = test system: NCI-H322M
In short: as §1

NCI-H1944 = test system: NCI-H1944
In short: as §1

HCC-78 = test system: HCC-78
In short: as §1

LU99A = test system: LU99A
In short: as §1

Clc1ccc(Nc2nnc(Cc3ccncc3)c3ccccc23)cc1 [Vatalanib] + CC1(C)CCC(c2ccc(Cl)cc2)=C(CN2CCN(c3ccc(C(=O)NS(=O)(=O)c4ccc(N[C@H](CCN5CCOCC5)CSc5ccccc5)c(S(=O)(=O)C(F)(F)F)c4)cc3)CC2)C1 [Navitoclax] (partner 0.5 µM)
relative viability (PC-3 [JPC-3]; first compound 0.04 µM): 0.725
relative viability (PC-3 [JPC-3]; first compound 0.1265 µM): 0.832
relative viability (PC-3 [JPC-3]; first compound 0.4 µM): 0.848
relative viability (PC-3 [JPC-3]; first compound 1.265 µM): 0.739
relative viability (PC-3 [JPC-3]; first compound 4 µM): 0.757
relative viability (HCC-15; first compound 0.04 µM): 0.719
relative viability (HCC-15; first compound 0.1265 µM): 0.713
relative viability (HCC-15; first compound 0.4 µM): 0.767
relative viability (HCC-15; first compound 1.265 µM): 0.737
relative viability (HCC-15; first compound 4 µM): 0.654
relative viability (UMC-11; first compound 0.04 µM): 0.274
relative viability (UMC-11; first compound 0.1265 µM): 0.367
relative viability (UMC-11; first compound 0.4 µM): 0.303
relative viability (UMC-11; first compound 1.265 µM): 0.29
relative viability (UMC-11; first compound 4 µM): 0.322
relative viability (LC-2-ad; first compound 0.04 µM): 0.415
relative viability (LC-2-ad; first compound 0.1265 µM): 0.456
relative viability (LC-2-ad; first compound 0.4 µM): 0.558
relative viability (LC-2-ad; first compound 1.265 µM): 0.412
relative viability (LC-2-ad; first compound 4 µM): 0.529
relative viability (ChaGo-K-1; first compound 0.04 µM): 0.565
relative viability (ChaGo-K-1; first compound 0.1265 µM): 0.94
relative viability (ChaGo-K-1; first compound 1.265 µM): 0.934
relative viability (ChaGo-K-1; first compound 4 µM): 1.16
relative viability (NCI-H2087; first compound 0.04 µM): 1.11
relative viability (NCI-H2087; first compound 0.1265 µM): 1.09
relative viability (NCI-H2087; first compound 0.4 µM): 1.07
relative viability (NCI-H2087; first compound 1.265 µM): 0.994
relative viability (NCI-H2087; first compound 4 µM): 0.964
relative viability (NCI-H838; first compound 0.04 µM): 1.08
relative viability (NCI-H838; first compound 0.1265 µM): 1.11
relative viability (NCI-H838; first compound 0.4 µM): 1.19
relative viability (NCI-H838; first compound 1.265 µM): 1.07
relative viability (NCI-H838; first compound 4 µM): 1.18
relative viability (H3255; first compound 0.04 µM): 0.608
relative viability (H3255; first compound 0.1265 µM): 0.469
relative viability (H3255; first compound 0.4 µM): 0.458
relative viability (H3255; first compound 1.265 µM): 0.444
relative viability (H3255; first compound 4 µM): 0.521
relative viability (NCI-H1666; first compound 0.04 µM): 0.958
relative viability (NCI-H1666; first compound 0.1265 µM): 0.93
relative viability (NCI-H1666; first compound 0.4 µM): 0.829
relative viability (NCI-H1666; first compound 1.265 µM): 0.963
relative viability (NCI-H1666; first compound 4 µM): 0.845
relative viability (LXF-289; first compound 0.04 µM): 0.971
relative viability (LXF-289; first compound 0.1265 µM): 0.901
relative viability (LXF-289; first compound 0.4 µM): 0.989
relative viability (LXF-289; first compound 1.265 µM): 0.852
relative viability (LXF-289; first compound 4 µM): 0.899
relative viability (LK-2; first compound 0.04 µM): 0.883
relative viability (LK-2; first compound 0.1265 µM): 0.824
relative viability (LK-2; first compound 1.265 µM): 0.955
relative viability (LK-2; first compound 4 µM): 0.807
relative viability (LCLC-97TM1; first compound 0.04 µM): 0.631
relative viability (LCLC-97TM1; first compound 0.1265 µM): 0.511
relative viability (LCLC-97TM1; first compound 0.4 µM): 0.488
relative viability (LCLC-97TM1; first compound 1.265 µM): 0.401
relative viability (LCLC-97TM1; first compound 4 µM): 0.38
relative viability (NCI-H1651; first compound 0.04 µM): 0.928
relative viability (NCI-H1651; first compound 0.1265 µM): 1.09
relative viability (NCI-H1651; first compound 0.4 µM): 1.11
relative viability (NCI-H1651; first compound 1.265 µM): 1.02
relative viability (NCI-H1651; first compound 4 µM): 1.08
relative viability (NCI-H596; first compound 0.04 µM): 0.972
relative viability (NCI-H596; first compound 0.1265 µM): 1
relative viability (NCI-H596; first compound 0.4 µM): 1.08
relative viability (NCI-H596; first compound 1.265 µM): 0.767
relative viability (NCI-H596; first compound 4 µM): 0.986
relative viability (SK-MES-1; first compound 0.04 µM): 1.2
relative viability (SK-MES-1; first compound 0.1265 µM): 1.21
relative viability (SK-MES-1; first compound 0.4 µM): 1.28
relative viability (SK-MES-1; first compound 1.265 µM): 1.01
relative viability (SK-MES-1; first compound 4 µM): 1.15
relative viability (BEN; first compound 0.04 µM): 0.0773
relative viability (BEN; first compound 0.1265 µM): 0.0662
relative viability (BEN; first compound 0.4 µM): 0.0617
relative viability (BEN; first compound 1.265 µM): 0.0622
relative viability (BEN; first compound 4 µM): 0.0608
relative viability (NCI-H322M; first compound 0.04 µM): 1.22
relative viability (NCI-H322M; first compound 0.1265 µM): 1.21
relative viability (NCI-H322M; first compound 0.4 µM): 1.27
relative viability (NCI-H322M; first compound 1.265 µM): 1.14
relative viability (NCI-H322M; first compound 4 µM): 1.09
relative viability (NCI-H1944; first compound 0.04 µM): 1.01
relative viability (NCI-H1944; first compound 0.1265 µM): 1.02
relative viability (NCI-H1944; first compound 0.4 µM): 1.06
relative viability (NCI-H1944; first compound 1.265 µM): 1.08
relative viability (NCI-H1944; first compound 4 µM): 1.06
relative viability (HCC-78; first compound 0.04 µM): 0.714
relative viability (HCC-78; first compound 0.1265 µM): 0.76
relative viability (HCC-78; first compound 0.4 µM): 0.888
relative viability (HCC-78; first compound 4 µM): 0.72
relative viability (LU99A; first compound 0.04 µM): 0.763
relative viability (LU99A; first compound 0.1265 µM): 0.719
relative viability (LU99A; first compound 0.4 µM): 1.11
relative viability (LU99A; first compound 1.265 µM): 0.855
relative viability (LU99A; first compound 4 µM): 0.859
